The structures appear in SMILES notation.

Assay [1] concerns α-tubulin. As to the kind of experiment: CETSA in MDA-MB-231 cell lysate, negative control protein. It counts as binding, human. To be noted: 100 µM PROTAC, 51-55 °C, vs DMSO. The procedure: CETSA protocol was adapted from[60]. In all, 3 × 10^7 MDA-MB-231 cells (1 × 10^7 cells per condition) were collected and resuspended in ice-cold 1X PBS supplemented with 1X protease inhibitor cocktail (Roche) and lysed by three cycles of liquid nitrogen snap freeze, followed by 50% thaw in a room temperature water bath and an additional 50% thaw at 4 °C. After each freeze–thaw cycle, lysate was vortexed briefly to ensure homogenous thawing. Lysate was then cleared for 20 min by centrifugation (14,000 × g at 4 °C) and the soluble fraction was divided into three equal aliquots. The aliquots were treated with vehicle (2.5% DMSO), 100 µM SJFα, or 100 µM SJFδ and incubated at room temperature for 30 min with gentle rotation. Each aliquot was then divided (50 µL) into eight PCR tubes and individually heated at the indicated temperature for 3 min followed by cooling at room temperature for 3 min. After cooling, samples were spun down for 20 min (14,000 × g at 4 °C) and the supernatant (soluble fraction) was analyzed by SDS-PAGE and immunoblotted for p38δ and alpha-tubulin (negative control).

Assay [2] deals with T1, endogenous p38δ (Homo sapiens, UniProt O15264+P40337).
T1 construct: endogenous in cells; host or cells: MDA-MB-231 whole-cell lysate (p38δ); GST-VBC bait made in E. coli
The assay is described as follows: Ternary complex pull-down from MDA-MB-231 whole-cell lysate. It counts as binding. How it is done: Glutathione Sepharose 4B (Glutathione-conjugated beads in a slurry containing 20% ethanol) were washed twice with 1X wash buffer (50 mM HEPES pH 7.5, 150 mM NaCl, 1 mM DTT, 0.01% NP40, 5 mM MgCl2, 10% Glycerol) and then blocked for 1 h at room temperature with 10% bovine serum albumin (BSA) in wash buffer. The beads were then washed again three times with wash buffer and then purified GST-VBC (stable form of VHL complexed with EloB/EloC, described above) was immobilized for 1 h at 4 °C at 3.6 pmole µL^–1 of beads. The beads were then washed three times with wash buffer, resuspended, divided into two equal volumes, and p38α or p38δ protein was added. The bead:p38 mixture was then aliquoted to separate tubes and PROTAC was added at the indicated concentration (PROTACs were intermediately diluted in 10% DMSO and 0.25% CHAPS). This mixture was incubated at 4 °C for 2 h. The beads were washed three times with 10 column volumes of wash buffer and then eluted with SDS loading buffer at 75 °C for 10 min.
For experiments in which the input substrate is a WCL (Fig. 4b), the sample was prepared as follows. Five 150 mm dishes of confluent MDA-MB-231 cells were washed with 1X PBS, pH 7.4, and then dissociated using enzyme-free PBS-based cell dissociation buffer (ThermoFisher Scientific) for 10 min at 37 °C. […]

The target of assay [3] is T2, p38β (Homo sapiens, UniProt Q15759).
T2 construct: endogenous in cells; host or cells: MDA-MB-231
The assay is described as follows: p38β degradation, western blot in MDA-MB-231 cells. To be noted: concentrations up to 2.5 µM. It counts as cell-based. The procedure:
[…] once with ice-cold PBS (1 × ), followed by lysis in buffer containing 25 mM Tris [pH 7.5], 0.25% sodium deoxycholate, 1% Triton X-100, supplemented with 1X protease inhibitor cocktail (Roche), and phosphatase inhibitors (10 mM NaF, 1 mM Na3VO4, and 20 mM β-glycerophosphate), unless otherwise noted. Lysates were spun at 14,000 × g for 10 min at 4 °C and supernatant was evaluated for protein content using a Pierce BCA Protein Assay (ThermoFisher Scientific). In all experiments, 25–50 μg of protein was loaded onto 10% SDS-PAGE gels or 4–20% Criterion TGX precast gradient gels (Bio-Rad), transferred to nitrocellulose membranes, and probed with the specified antibodies overnight at 4 °C in 1X TBS-Tween (Tris-buffered saline plus 0.02% Tween 20) containing 5% non-fat milk. Immunoblots were visualized using a Bio-Rad ChemiDoc imaging instrument and subsequently processed and quantified using the accompanying Bio-Rad ImageLab software. See Supplementary Figure 8 for uncropped scans of western blots shown in the main text figures.
Supplementary Figure 4 cont.
Supplementary Figure 4. Characterization of M APK fam ily degradation selectivity (related to Figures 1-2). (a) p38 M APK fam ily m em bers (α, β, δ, γ) were aligned using the T-Coffee multiple sequence alignm ent server. […] Note: JNK1 and JNK2 are expressed as two alternatively-spliced form s. […]
(In western blotting, separated proteins are transferred to a membrane and probed.)

T2 sequence (Q15759 whole entry): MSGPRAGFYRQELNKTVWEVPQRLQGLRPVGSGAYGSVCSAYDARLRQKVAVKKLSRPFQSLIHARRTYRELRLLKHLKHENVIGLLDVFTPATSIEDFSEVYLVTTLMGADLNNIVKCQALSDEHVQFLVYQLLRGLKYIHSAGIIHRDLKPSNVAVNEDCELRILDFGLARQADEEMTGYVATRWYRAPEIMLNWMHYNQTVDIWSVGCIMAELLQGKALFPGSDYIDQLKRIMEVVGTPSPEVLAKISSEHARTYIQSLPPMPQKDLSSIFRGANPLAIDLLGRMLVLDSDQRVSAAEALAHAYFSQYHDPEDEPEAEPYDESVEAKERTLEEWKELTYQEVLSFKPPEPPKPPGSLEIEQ
T1 sequence (O15264 whole entry): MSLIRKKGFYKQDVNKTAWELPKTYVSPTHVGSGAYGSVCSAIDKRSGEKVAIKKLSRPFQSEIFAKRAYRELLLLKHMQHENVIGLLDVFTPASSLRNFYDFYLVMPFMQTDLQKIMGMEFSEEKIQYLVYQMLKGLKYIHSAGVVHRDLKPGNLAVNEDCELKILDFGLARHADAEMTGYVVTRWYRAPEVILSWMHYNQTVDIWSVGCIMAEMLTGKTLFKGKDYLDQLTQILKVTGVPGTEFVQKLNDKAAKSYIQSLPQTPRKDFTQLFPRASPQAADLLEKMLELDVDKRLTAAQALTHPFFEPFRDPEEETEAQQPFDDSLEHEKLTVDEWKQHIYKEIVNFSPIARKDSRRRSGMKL
T1 sequence (P40337 whole entry): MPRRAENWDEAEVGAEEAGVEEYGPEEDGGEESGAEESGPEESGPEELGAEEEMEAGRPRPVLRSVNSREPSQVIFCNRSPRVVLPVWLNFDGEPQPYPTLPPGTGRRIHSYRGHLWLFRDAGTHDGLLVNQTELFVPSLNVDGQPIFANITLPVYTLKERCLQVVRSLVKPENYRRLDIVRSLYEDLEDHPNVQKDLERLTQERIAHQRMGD
T1 sequence (Q15370 whole entry partner): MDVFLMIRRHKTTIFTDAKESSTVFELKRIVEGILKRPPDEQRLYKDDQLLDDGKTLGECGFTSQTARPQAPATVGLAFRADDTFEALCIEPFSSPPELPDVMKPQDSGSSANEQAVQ
T1 sequence (Q15369 whole entry partner): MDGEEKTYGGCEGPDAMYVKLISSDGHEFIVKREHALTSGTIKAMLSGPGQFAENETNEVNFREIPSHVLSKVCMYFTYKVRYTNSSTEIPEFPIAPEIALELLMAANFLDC

On to `COc1cc2c(Oc3ccc(NC(=O)C4(C(=O)Nc5ccc(F)cc5)CC4)cc3F)ccnc2cc1OCCOCCOCCOc1cc(-c2scnc2C)ccc1CNC(=O)[C@@H]1C[C@@H](O)CN1C(=O)[C@H](C(C)C)N1Cc2ccccc2C1=O` [SJFδ], for which the “thermal shift of α-tubulin” value in assay [1] is on record as “thermal shifts were not seen”. In addition, in assay [2], the “enrichment of endogenous p38δ on GST-VBC bait” value was “strongly enriches for endogenous p38δ”. For the same compound, in assay [3], the p38β degradation entry is listed as “does not degrade”.

As for `COc1cc2c(Oc3ccc(NC(=O)C4(C(=O)Nc5ccc(F)cc5)CC4)cc3F)ccnc2cc1OCCCCOCCCCOCC(=O)N[C@H](C(=O)N1C[C@H](O)C[C@H]1C(=O)NCc1ccc(-c2scnc2C)cc1)C(C)(C)C` [SJFα], the “thermal shift of α-tubulin” value in assay [1] was “thermal shifts were not seen”. The “enrichment of endogenous p38δ on GST-VBC bait” value in assay [2] is on record as “stable ternary complex formation was greatly reduced”. In addition, in assay [3], the p38β degradation entry is “does not degrade”.

Source of the values: article PMC6328587 (Nature Communications, 2019).
